According to patent publication US20020091095A1, “Modulation of Fas and FasL expression” (priority 1999, published 2002):

Experiments:
[1] = tested on: FasL; assay: FasL expression at the cell surface by flow cytometry, Jurkat cells; assay type: cell-based; settings: Jurkat human leukemia T cells, 100 μg/ml sequence, 48 h, treated vs control cells
Method: (§1) Cancer cells and PBMCs were seeded in 6 well flat-bottom microplates and were maintained at 37° C. in a 5% CO2 atmosphere. Unless stated otherwise, 2×10^5 cells/ml were incubated for 48 h with 0 μg/ml (control) or 100 μg/ml ([…]) (treated) of the sequences.
(§2) Fas and FasL expression were measured by flow cytometry using anti-Fas FITC-conjugated monoclonal antibodies and anti-FasL PE-conjugated monoclonal antibodies in a FACScalibur Flow Cytometer (Becton Dickinson, San Jose, Calif., USA) using the CELLQuest program (Becton Dickinson).
(§3) Results are expressed as percentage (%) increase in the expression of Fas and of FasL measured on treated cells compared to control cells.
(§4) Jurkat human leukemia T cells are an atypical multi-drug resistant human suspension tumor cell model.

[2] = tested on: Fas; assay: Fas expression at the cell surface by flow cytometry, UMUC-3 cells; assay type: cell-based, human; settings: UMUC-3 bladder cancer cells, 100 μg/ml sequence, 48 h, treated vs control cells
Method: as §1, §2, §3
(§5) UMUC-3 bladder cancer cells are a P-glycoprotein overexpressing human cell line.

[3] = tested on: FasL; assay: FasL expression at the cell surface by flow cytometry, UMUC-3 cells; assay type: cell-based, human; settings: UMUC-3 bladder cancer cells, 100 μg/ml sequence, 48 h, treated vs control cells
Method: as §1, §2, §3, §5

[4] = tested on: Fas; assay: Fas expression at the cell surface by flow cytometry, MCF-7 cells; assay type: cell-based, human; settings: MCF-7 breast cancer cells, 100 μg/ml sequence, 48 h, treated vs control cells
Method: as §1, §2, §3
(§6) MCF-7 human breast cancer cells are a caspase-3 negative, estrogen-dependent human solid tumor model.

[5] = tested on: Fas; assay: Fas expression at the cell surface by flow cytometry, OVCAR-3 cells; assay type: cell-based, human; settings: OVCAR-3 ovarian cancer cells, 100 μg/ml sequence, 48 h, treated vs control cells
Method: as §1, §2, §3
(§7) OVCAR-3 ovarian cancer cells are a p53 mutated, p21/waf-1/Cip deleted, metastatic human solid tumor model.

[6] = tested on: FasL; assay: FasL expression at the cell surface by flow cytometry, MCF-7 cells; assay type: cell-based, human; settings: MCF-7 breast cancer cells, 100 μg/ml sequence, 48 h, treated vs control cells
Method: as §1, §2, §3, §6

[7] = tested on: Fas; assay: Fas expression at the cell surface by flow cytometry, SK-OV-3 cells; assay type: cell-based, human; settings: SK-OV-3 ovarian cancer cells, 100 μg/ml sequence, 48 h, treated vs control cells
Method: as §1, §2, §3
(§8) SK-OV-3 ovarian cancer cells are a p53 mutated, p21/waf-1/Cip deleted, p15^ink4B,p16^ink4 deleted metastatic human solid tumor model.

[8] = tested on: FasL; assay: FasL expression at the cell surface by flow cytometry, LNCaP cells; assay type: cell-based, human; settings: LNCaP prostate cancer cells, 100 μg/ml sequence, 48 h, treated vs control cells
Method: as §1, §2, §3
(§9) LNCaP prostate cancer cells are a TGF-beta 1 receptor negative, […], metastatic human solid tumor model.

[9] = tested on: FasL; assay: FasL expression at the cell surface by flow cytometry, PBMCs; assay type: cell-based, human; settings: 100 μg/ml sequence, 48 h, treated vs control cells
Method: (§10) Peripheral blood mononuclear cells (hereinafter, “PBMCs”) were isolated from human blood by Ficoll-Hypaque (Amersham Pharmacia Biotech, Baie d'Urfée, Québec, Canada) density gradient centrifugation.
as §1, §2, §3

[10] = tested on: Fas; assay: Fas expression at the cell surface by flow cytometry, T-24 cells; assay type: cell-based, human; settings: T-24 bladder cancer cells, 100 μg/ml sequence, 48 h, treated vs control cells
Method: as §1, §2, §3
(§11) T-24 bladder cancer cells are a p53 mutated human cell line T-24 cells (1.0×10^5 cells/ml) were incubated with the 6 base sequences shown in Table 4.

[11] = tested on: FasL; assay: FasL expression at the cell surface by flow cytometry, SK-OV-3 cells; assay type: cell-based, human; settings: SK-OV-3 ovarian cancer cells, 100 μg/ml sequence, 48 h, treated vs control cells
Method: as §1, §2, §3, §8

[12] = tested on: FasL; assay: FasL expression at the cell surface by flow cytometry, OVCAR-3 cells; assay type: cell-based, human; settings: OVCAR-3 ovarian cancer cells, 100 μg/ml sequence, 48 h, treated vs control cells
Method: as §1, §2, §3, §7

[13] = tested on: Fas; assay: Fas expression at the cell surface by flow cytometry, PBMCs; assay type: cell-based, human; settings: 100 μg/ml sequence, 48 h, treated vs control cells
Method: as §10, §1, §2, §3

[14] = tested on: Fas; assay: Fas expression at the cell surface by flow cytometry, LNCaP cells; assay type: cell-based, human; settings: LNCaP prostate cancer cells, 100 μg/ml sequence, 48 h, treated vs control cells
Method: as §1, §2, §3, §9

[15] = tested on: Fas; assay: Fas expression at the cell surface by flow cytometry, Jurkat cells; assay type: cell-based; settings: Jurkat human leukemia T cells, 100 μg/ml sequence, 48 h, treated vs control cells
Method: as §1, §2, §3, §4

[16] = tested on: FasL; assay: FasL expression at the cell surface by flow cytometry, T-24 cells; assay type: cell-based, human; settings: T-24 bladder cancer cells, 100 μg/ml sequence, 48 h, treated vs control cells
Method: as §1, §2, §3, §11

| Sequence | % INCREASE FasL [1] [%] | % INCREASE Fas [2] [%] | % INCREASE FasL [3] [%] | % INCREASE Fas [4] [%] | % INCREASE Fas [5] [%] | % INCREASE FasL [6] [%] | % INCREASE Fas [7] [%] | % INCREASE FasL [8] [%] | % INCREASE FasL [9] [%] | % INCREASE Fas [10] [%] | % INCREASE FasL [11] [%] | % INCREASE FasL [12] [%] | % INCREASE Fas [13] [%] | % INCREASE Fas [14] [%] | % INCREASE Fas [15] [%] | % INCREASE FasL [16] [%] |
| --- | --- | --- | --- | --- | --- | --- | --- | --- | --- | --- | --- | --- | --- | --- | --- | --- |
| AAGTAA [SEQ ID NO:7] | −21 | 6 | −1 | 12 | 16 | 21 | −12 | −16 | −26 | 16 | −22 | −2 | 13 | 0 | −4 | −10 |
| ATGTAT [SEQ ID NO:10] | 393 | 42 | 95 | 129 | 93 | 214 | 34 | 68 | 457 | 90 | 33 | 114 | 377 | 44 | 246 | 150 |
| CCGTCC [SEQ ID NO:8] | 151 | 55 | 149 | 200 | 83 | 322 | 58 | 311 | 1147 | 282 | 32 | 95 | 1046 | 0 | 107 | 459 |
| CTGTCT [SEQ ID NO:11] | 413 | 45 | 156 | 73 | 52 | 128 | 15 | 55 | 476 | 107 | 26 | 93 | 310 | 17 | 203 | 165 |
| GGAAGG [SEQ ID NO:14] | 88 | 1 | 8 | 62 | 15 | 84 | −15 | −4 | 162 | 46 | −31 | 1 | 112 | 26 | 67 | 14 |
| GGCCGG [SEQ ID NO:15] | 41 | 23 | 58 | 63 | 19 | 78 | 0 | −4 | −29 | 56 | −27 | −2 | 6 | 12 | 75 | 18 |
| GGTGGG [SEQ ID NO:4] | 22 | 62 | 113 | 106 | 41 | 110 | −1 | 8 | 59 | 106 | −17 | 14 | 57 | 21 | 61 | 29 |
